Laboratory results published in US10870647B2, “Imidazopyridine derivative, method for preparing same, and pharmaceutical composition containing same as active ingredient for preventing or treating cancer” (DAEGU-GYEONGBUK MEDICAL INNOVATION FOUNDATION, priority 2016, dated 2020).

Legend:
Assay in all cases: Kinase selectivity, scanMAX Kinase assay panel (DiscoverX), % control at 1 uM
Assay type in all cases: binding
[1] = molecular target: T1, scanMAX Kinase assay panel (Homo sapiens, UniProt P53778); conditions: p38-gamma; 1 uM; read-out: Percent Control (%)
T1 construct: purchased DiscoverX
T1 sequence (P53778 1-367): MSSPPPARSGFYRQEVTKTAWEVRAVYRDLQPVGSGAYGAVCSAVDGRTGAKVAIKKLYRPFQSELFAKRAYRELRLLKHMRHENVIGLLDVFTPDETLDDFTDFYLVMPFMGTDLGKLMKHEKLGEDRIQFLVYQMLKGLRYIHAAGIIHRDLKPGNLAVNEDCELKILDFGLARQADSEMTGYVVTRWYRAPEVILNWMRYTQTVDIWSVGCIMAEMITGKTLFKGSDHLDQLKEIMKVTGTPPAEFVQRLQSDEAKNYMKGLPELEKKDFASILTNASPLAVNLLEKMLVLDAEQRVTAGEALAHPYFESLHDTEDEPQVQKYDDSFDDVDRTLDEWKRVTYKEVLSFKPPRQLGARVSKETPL
Summary of the method: (§1)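 1 uM cpd (DMSO) per kinase; % ctrl = [cpd − pos ctrl]/[neg ctrl − pos ctrl] × 100; hit if <35.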

[2] = molecular target: T2, scanMAX Kinase assay panel (Homo sapiens, UniProt Q9UQM7); conditions: CAMK2A; 1 uM; read-out: Percent Control (%)
T2 construct: purchased DiscoverX
Summary of the method: as §1

[3] = molecular target: T3, scanMAX Kinase assay panel (Homo sapiens, UniProt P37173); conditions: TGFBR2; 1 uM; read-out: Percent Control (%)
T3 construct: purchased DiscoverX
Summary of the method: as §1

[4] = molecular target: T4, scanMAX Kinase assay panel (Homo sapiens, UniProt P00533, L858R/T790M); conditions: EGFR (L858R, T790M); 1 uM; read-out: Percent Control (%)
T4 construct: purchased DiscoverX
Summary of the method: as §1

[5] = molecular target: T5, scanMAX Kinase assay panel (Homo sapiens, UniProt Q8TD08); conditions: ERK8; 1 uM; read-out: Percent Control (%)
T5 construct: purchased DiscoverX
T5 sequence (Q8TD08 1-544): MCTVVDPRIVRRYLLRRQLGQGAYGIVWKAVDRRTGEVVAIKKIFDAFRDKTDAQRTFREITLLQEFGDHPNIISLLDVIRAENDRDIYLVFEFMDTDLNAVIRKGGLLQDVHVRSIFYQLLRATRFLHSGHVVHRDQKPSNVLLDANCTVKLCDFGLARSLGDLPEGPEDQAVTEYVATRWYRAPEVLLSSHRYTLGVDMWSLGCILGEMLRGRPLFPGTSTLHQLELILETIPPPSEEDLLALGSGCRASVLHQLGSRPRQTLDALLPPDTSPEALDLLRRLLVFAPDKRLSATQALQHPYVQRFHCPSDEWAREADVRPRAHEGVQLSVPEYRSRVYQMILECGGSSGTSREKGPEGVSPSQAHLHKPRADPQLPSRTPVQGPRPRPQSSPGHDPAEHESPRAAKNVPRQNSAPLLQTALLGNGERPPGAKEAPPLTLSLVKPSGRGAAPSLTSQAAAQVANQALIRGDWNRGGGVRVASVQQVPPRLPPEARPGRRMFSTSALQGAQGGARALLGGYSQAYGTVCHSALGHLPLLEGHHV
Summary of the method: as §1

[6] = molecular target: T6, scanMAX Kinase assay panel (Homo sapiens, UniProt O15530); conditions: PDPK1; 1 uM; read-out: Percent Control (%)
T6 construct: purchased DiscoverX
T6 sequence (O15530 1-556): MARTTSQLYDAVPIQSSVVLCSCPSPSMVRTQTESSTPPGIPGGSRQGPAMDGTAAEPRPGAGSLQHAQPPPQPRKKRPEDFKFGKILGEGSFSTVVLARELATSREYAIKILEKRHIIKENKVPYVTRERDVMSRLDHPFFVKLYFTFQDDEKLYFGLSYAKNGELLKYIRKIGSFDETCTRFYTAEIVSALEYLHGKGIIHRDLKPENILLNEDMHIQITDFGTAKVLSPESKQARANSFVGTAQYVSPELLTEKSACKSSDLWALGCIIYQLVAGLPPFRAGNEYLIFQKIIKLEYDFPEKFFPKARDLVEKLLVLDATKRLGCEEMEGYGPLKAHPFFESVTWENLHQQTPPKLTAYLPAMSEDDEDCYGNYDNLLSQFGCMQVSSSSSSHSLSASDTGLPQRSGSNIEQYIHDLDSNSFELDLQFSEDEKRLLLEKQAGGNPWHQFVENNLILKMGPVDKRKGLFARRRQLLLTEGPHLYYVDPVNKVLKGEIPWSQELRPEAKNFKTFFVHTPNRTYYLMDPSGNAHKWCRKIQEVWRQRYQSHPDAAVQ
Summary of the method: as §1

[7] = molecular target: T7, scanMAX Kinase assay panel (Homo sapiens, UniProt O96013); conditions: PAK4; 1 uM; read-out: Percent Control (%)
T7 construct: purchased DiscoverX
Summary of the method: as §1

[8] = molecular target: T8, scanMAX Kinase assay panel (Homo sapiens, UniProt Q16566); conditions: CAMK4; 1 uM; read-out: Percent Control (%)
T8 construct: purchased DiscoverX
T8 sequence (Q16566 1-473): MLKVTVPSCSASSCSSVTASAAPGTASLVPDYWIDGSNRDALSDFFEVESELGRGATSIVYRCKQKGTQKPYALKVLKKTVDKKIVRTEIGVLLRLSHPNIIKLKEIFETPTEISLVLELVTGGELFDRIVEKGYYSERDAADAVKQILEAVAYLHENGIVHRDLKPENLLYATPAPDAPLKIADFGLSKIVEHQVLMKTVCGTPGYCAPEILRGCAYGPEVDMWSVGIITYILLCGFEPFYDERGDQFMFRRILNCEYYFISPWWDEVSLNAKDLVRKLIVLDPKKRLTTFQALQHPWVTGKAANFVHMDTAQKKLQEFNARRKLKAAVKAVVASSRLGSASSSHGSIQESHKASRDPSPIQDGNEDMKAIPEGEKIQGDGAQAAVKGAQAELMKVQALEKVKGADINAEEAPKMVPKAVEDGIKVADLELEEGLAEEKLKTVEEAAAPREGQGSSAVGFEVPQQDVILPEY
Summary of the method: as §1

T7 sequence (O96013 whole entry): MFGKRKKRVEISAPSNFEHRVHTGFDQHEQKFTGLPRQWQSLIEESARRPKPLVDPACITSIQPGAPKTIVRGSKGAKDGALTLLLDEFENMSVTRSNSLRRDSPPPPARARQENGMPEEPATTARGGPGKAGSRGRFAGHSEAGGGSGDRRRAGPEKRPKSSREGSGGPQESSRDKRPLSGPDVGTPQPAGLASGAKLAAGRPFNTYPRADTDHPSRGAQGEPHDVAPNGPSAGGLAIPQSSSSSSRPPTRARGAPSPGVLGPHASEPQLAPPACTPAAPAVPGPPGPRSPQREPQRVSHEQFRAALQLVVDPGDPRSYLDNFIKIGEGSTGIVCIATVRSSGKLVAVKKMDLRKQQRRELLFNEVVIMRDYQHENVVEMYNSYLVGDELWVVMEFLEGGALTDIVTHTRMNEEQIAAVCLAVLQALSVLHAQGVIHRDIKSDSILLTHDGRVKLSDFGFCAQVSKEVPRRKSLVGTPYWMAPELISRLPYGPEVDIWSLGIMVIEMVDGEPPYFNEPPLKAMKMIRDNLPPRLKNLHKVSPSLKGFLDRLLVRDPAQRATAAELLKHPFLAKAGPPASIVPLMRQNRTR
T2 sequence (Q9UQM7 whole entry): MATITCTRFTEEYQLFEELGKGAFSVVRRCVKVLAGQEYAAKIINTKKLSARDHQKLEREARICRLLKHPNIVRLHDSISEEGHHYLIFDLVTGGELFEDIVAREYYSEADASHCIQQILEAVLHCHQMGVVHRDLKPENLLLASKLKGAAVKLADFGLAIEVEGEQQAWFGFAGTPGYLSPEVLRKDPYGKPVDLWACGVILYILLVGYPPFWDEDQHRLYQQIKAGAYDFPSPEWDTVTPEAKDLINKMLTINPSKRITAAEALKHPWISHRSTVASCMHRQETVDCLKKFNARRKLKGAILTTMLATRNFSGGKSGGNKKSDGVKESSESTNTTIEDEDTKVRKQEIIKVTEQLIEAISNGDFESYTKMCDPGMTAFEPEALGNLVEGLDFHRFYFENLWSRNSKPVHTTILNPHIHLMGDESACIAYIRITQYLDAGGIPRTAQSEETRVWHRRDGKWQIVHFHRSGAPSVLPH
T3 sequence (P37173 23-567): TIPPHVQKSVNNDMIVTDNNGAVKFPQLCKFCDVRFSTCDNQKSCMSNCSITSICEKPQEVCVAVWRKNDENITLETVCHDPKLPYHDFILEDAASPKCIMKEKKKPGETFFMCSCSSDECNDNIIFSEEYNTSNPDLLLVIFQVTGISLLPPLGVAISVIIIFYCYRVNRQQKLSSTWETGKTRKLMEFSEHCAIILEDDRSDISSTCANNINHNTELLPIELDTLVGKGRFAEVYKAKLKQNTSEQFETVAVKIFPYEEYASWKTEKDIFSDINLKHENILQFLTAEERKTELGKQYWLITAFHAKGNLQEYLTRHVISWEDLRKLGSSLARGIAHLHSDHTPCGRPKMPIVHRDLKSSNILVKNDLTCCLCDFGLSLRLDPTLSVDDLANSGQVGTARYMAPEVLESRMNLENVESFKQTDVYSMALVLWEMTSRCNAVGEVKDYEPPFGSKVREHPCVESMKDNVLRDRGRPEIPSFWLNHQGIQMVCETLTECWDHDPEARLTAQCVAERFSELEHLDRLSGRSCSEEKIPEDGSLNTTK
T4 sequence (P00533 25-1210 T790M/L858R): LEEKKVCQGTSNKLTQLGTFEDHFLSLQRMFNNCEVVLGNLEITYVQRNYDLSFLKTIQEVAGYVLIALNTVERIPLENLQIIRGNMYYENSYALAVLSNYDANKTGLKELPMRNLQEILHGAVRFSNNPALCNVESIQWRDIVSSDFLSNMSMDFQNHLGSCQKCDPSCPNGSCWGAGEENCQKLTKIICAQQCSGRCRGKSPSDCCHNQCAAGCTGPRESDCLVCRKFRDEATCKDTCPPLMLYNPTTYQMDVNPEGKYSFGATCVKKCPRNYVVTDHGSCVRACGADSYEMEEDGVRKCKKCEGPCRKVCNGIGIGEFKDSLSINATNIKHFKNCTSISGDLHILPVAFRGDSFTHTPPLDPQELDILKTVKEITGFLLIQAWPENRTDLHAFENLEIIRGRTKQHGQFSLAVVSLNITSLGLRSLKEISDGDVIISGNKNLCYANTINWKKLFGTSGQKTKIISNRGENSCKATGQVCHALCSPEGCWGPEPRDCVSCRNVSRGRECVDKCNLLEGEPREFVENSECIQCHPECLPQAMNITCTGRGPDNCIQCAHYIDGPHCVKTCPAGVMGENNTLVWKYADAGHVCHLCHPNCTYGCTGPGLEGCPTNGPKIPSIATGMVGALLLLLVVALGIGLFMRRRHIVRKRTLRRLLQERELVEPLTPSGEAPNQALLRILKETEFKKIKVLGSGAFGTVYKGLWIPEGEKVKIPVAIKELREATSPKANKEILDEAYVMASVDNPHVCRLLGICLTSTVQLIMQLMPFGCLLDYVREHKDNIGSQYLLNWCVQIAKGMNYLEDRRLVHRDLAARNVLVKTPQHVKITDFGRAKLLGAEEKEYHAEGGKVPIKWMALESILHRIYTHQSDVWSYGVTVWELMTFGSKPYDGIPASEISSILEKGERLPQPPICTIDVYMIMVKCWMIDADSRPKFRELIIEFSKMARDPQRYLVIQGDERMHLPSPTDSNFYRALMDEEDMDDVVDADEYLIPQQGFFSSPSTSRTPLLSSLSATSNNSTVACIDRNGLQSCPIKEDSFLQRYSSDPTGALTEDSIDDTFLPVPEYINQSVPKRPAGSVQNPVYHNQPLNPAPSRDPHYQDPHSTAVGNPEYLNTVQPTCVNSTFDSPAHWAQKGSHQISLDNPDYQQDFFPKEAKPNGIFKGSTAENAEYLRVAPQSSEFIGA

SMILES	remaining binding at 1 µM [1] [%]	remaining binding at 1 µM [2] [%]	remaining binding at 1 µM [3] [%]	remaining binding at 1 µM [4] [%]	remaining binding at 1 µM [5] [%]	remaining binding at 1 µM [6] [%]	remaining binding at 1 µM [7] [%]	remaining binding at 1 µM [8] [%]
Cc1ccc(NC(=O)C2(C(=O)Nc3ccc(F)cc3)CC2)cc1C#Cc1cnc2c(Nc3cnn(C(C)C)c3)cccn12 [Example 78]	100	100	100	84	87	92	100	100
Cc1cn(-c2cc(NC(=O)c3ccc(C)c(C#Cc4cnc5c(Nc6cnn(C)c6)cccn45)c3)cc(C(F)(F)F)c2)cn1 [Example 12, 4-methyl-N-(3-(4-methyl-1H-imidazol-1-yl)-5-(trifluoromethyl)phenyl)-3-((8-((1-methyl-1H-pyrazol-4-yl)amino)imidazo[1,2-a]pyridin-3-yl)ethynyl)benzamide]	55	96	94	69	71	93	98	87
Cc1ccc(C(=O)Nc2ccc(CN3CCN(C)CC3)c(C(F)(F)F)c2)cc1C#Cc1cnc2c(Nc3cnn(C)c3)cccn12 [Example 1, 4-methyl-3-((8-((1-methyl-1H-pyrazol-4-yl)amino)imidazo[1,2-a]pyridin-3-yl)ethynyl)-N-(4-((4-methylpiperazin-1-yl)methyl)-3-(trifluoromethyl)phenyl)benzamide]	18	82	24	17	29	50	85	99
